Assay results taken from US7521478B2, “Total synthesis of myriaporones” (Pharma Mar, S.A.U., priority 2002, dated 2009).

What was measured:
Assay type in all cases: cell-based
[1] = system: DU-145; assay: Inhibition of cell growth by colorimetric SRB assay, DU-145; conditions: Homo sapiens, DU-145, 48 hours exposure; for CC50: cell killing, read-out: LC50 (the source's name); for IC (total growth inhibition): read-out: TGI
From the text: (§1) The finality of these assays is to interrupt the growth of a “in vitro” tumor cell culture by means a continued exhibition of the cells to the sample to be testing.
(§2) Inhibition of Cell Growth by Colorimetric Assay.
(§3) A colorimetric type of assay, using sulforhodamine B (SRB) reaction has been adapted for a quantitative measurement of cell growth and viability (following the technique described by P. A. Skehan, et al., J. Natl. CancerInst. 1990, 82, 1107-1112).
(§4) This form of assay employs 96 well cell culture microplates of 9 mm diameter (T. Mosmann et al., J. of Immuological Methods 1983, 65, 55-63; G. T. Faircloth et al., J. of Tissue and Culture Methods 1988, 11, 201-205). Most of the cell lines are obtained from American Type Culture Collection (ATCC) derived from different human cancer types.
(§5) Cells are maintained in RPMI 1640 10% FBS, supplemented with 0.1 g/L penicillin and 0.1 g/L streptomycin sulfate and then incubated at 37° C., 5% CO2 and 98% humidity. For the experiments, cells were harvested from subconfluent cultures using trypsin and resuspended in fresh medium before plating.
(§6) Cells are seeded in 96 well microtiter plates, at 5×10^3 cells per well in aliquots of 195 μL medium, and they are allowed to attach to the plate surface by growing in drug free medium for 18 hours. Afterward, samples are added in aliquots of 5 μL in a ranging from 10 to 10^−8 μg/mL, dissolved in DMSO/EtOH/PBS (0.5:0.5:99). After 48 hours exposure, the antitumor effect are measured by the SRB methodology: cells are fixed by adding 50 μL of cold 50% (wt/vol) trichloroacetic acid (TCA) and incubated for 60 minutes at 4° C. Plates are washed with deionizer water and dried. One hundred μl of SRB solution (0.4% wt/vol in 1% acetic acid) is added to each microliter well and incubated for 10 minutes at room temperature. Unbound SRB is removed by washing with 1% acetic acid. Plates are air dried and bound stain is solubilized with Tris buffer. Optical densities are read on a automated spectrophotometric plate reader at a single wavelength of 490 nm.
(§7) The values for mean +/−SD of data from triplicate wells are calculated. Some parameters for cellular responses can be calculated: GI=growth inhibition, TGI=total growth inhibition (cytostatic effect) and LC=cell killing (cytotoxic effect).

[2] = system: LNCaP; assay: Inhibition of cell growth by colorimetric SRB assay, LN-caP; conditions: Homo sapiens, LN-caP, 48 hours exposure; for CC50: cell killing, read-out: LC50 (the source's name); for IC (total growth inhibition): read-out: TGI
From the text: as §1, §2, §3, §4, §5, §6, §7

[3] = system: IGROV; assay: Inhibition of cell growth by colorimetric SRB assay, IGROV; conditions: Homo sapiens, 48 hours exposure; for CC50: cell killing, read-out: LC50 (the source's name); for IC (total growth inhibition): read-out: TGI
From the text: as §1, §2, §3, §4, §5, §6, §7

[4] = system: IGROV-ET; assay: Inhibition of cell growth by colorimetric SRB assay, IGROV-ET; conditions: Homo sapiens, IGROV-ET, 48 hours exposure; for CC50: cell killing, read-out: LC50 (the source's name); for IC (total growth inhibition): read-out: TGI
From the text: as §1, §2, §3, §4, §5, §6, §7

[5] = system: SK-MEL-28; assay: Inhibition of cell growth by colorimetric SRB assay, MEL-28; conditions: Homo sapiens, SK-MEL-28, MEL-28, 48 hours exposure; for CC50: cell killing, read-out: LC50 (the source's name); for IC (total growth inhibition): read-out: TGI
From the text: as §1, §2, §3, §4, §5, §6, §7

[6] = system: A-549; assay: Inhibition of cell growth by colorimetric SRB assay, A-549; conditions: Homo sapiens, A549, A-549, 48 hours exposure; for CC50: cell killing, read-out: LC50 (the source's name); for IC (total growth inhibition): read-out: TGI
From the text: as §1, §2, §3, §4, §5, §6, §7

[7] = system: K-562; assay: Inhibition of cell growth by colorimetric SRB assay, K-562; conditions: Homo sapiens, K562, K-562, 48 hours exposure; for CC50: cell killing, read-out: LC50 (the source's name); for IC (total growth inhibition): read-out: TGI
From the text: as §1, §2, §3, §4, §5, §6, §7

[8] = system: PANC-1; assay: Inhibition of cell growth by colorimetric SRB assay, PANC-1; conditions: Homo sapiens, PANC-1, 48 hours exposure; for CC50: cell killing, read-out: LC50 (the source's name); for IC (total growth inhibition): read-out: TGI
From the text: as §1, §2, §3, §4, §5, §6, §7

[9] = system: HT-29; assay: Inhibition of cell growth by colorimetric SRB assay, HT-29; conditions: Homo sapiens, HT-29, 48 hours exposure; for CC50: cell killing, read-out: LC50 (the source's name); for IC (total growth inhibition): read-out: TGI
From the text: as §1, §2, §3, §4, §5, §6, §7

[10] = system: LoVo; assay: Inhibition of cell growth by colorimetric SRB assay, LOVO; conditions: Homo sapiens, LOVO, 48 hours exposure; for LC50: cell killing, read-out: LC50; for IC (total growth inhibition): read-out: TGI
From the text: as §1, §2, §3, §4, §5, §6, §7

[11] = system: LoVo-Dox; assay: Inhibition of cell growth by colorimetric SRB assay, LOVO-DOX; conditions: Homo sapiens, LOVO-DOX, 48 hours exposure; for LC50 (concentration for 50% cell killing): read-out: LC50; for IC (total growth inhibition): read-out: TGI
From the text: as §1, §2, §3, §4, §5, §6, §7

[12] = system: HeLa; assay: Inhibition of cell growth by colorimetric SRB assay, HELA; conditions: Homo sapiens, HELA, 48 hours exposure; for CC50: cell killing, read-out: LC50 (the source's name); for IC (total growth inhibition): read-out: TGI
From the text: as §1, §2, §3, §4, §5, §6, §7

[13] = system: HeLa-APL; assay: Inhibition of cell growth by colorimetric SRB assay, HELA-APL; conditions: Homo sapiens; for GI50: 48 h; for CC50: HELA-APL, 48 hours exposure, cell killing, read-out: LC50 (the source's name)
From the text: as §1, §2, §3, §4, §5, §6, §7

## C/C=C\[C@H](C)[C@H]1OC1(C)[C@@H](O[Si](C)(C)C(C)(C)C)[C@@H](COC(C)=O)C(=O)[C@H](COC(C)=O)[C@@H](CC(=O)CC)OC(C)=O (stereo partly shown) [Compound 45]
[1]
  GI50: 16.3 µM
  CC50: 16.3 µM
  IC (total growth inhibition): 16.3 µM
[2]
  GI50: 8.34 µM
  CC50: 16.3 µM
  IC (total growth inhibition): 16.3 µM
[3]
  GI50: 16.3 µM
  CC50: 16.3 µM
  IC (total growth inhibition): 16.3 µM
[4]
  GI50: 15.8 µM
  CC50: 16.3 µM
  IC (total growth inhibition): 16.3 µM
[5]
  GI50: 16.3 µM
  CC50: 16.3 µM
  IC (total growth inhibition): 16.3 µM
[6]
  GI50: 16.3 µM
  CC50: 16.3 µM
  IC (total growth inhibition): 16.3 µM
[7]
  GI50: 16.3 µM
  CC50: 16.3 µM
  IC (total growth inhibition): 16.3 µM
[8]
  GI50: 8.24 µM
  CC50: 16.3 µM
  IC (total growth inhibition): 16.3 µM
[9]
  GI50: 16.3 µM
  CC50: 16.3 µM
  IC (total growth inhibition): 16.3 µM
[10]
  GI50: 8.26 µM
  LC50: 16.3 µM
  IC (total growth inhibition): 16.3 µM
[11]
  GI50: 10.5 µM
  LC50 (concentration for 50% cell killing): 16.3 µM
  IC (total growth inhibition): 16.3 µM
[12]
  GI50: 16.3 µM
  CC50: 16.3 µM
  IC (total growth inhibition): 16.3 µM
[13]
  GI50: 16.3 µM
  CC50: 16.3 µM

## C/C=C\[C@H](C)[C@H]1OC1(C)[C@@H](O[Si](C)(C)C(C)(C)C)[C@@H](COC(C)=O)C(=O)[C@H](CO)[C@@H](O)CC(=O)CC (stereo partly shown) [Compound 46]
[1]
  GI50: 9.65 µM
  CC50: 18.9 µM
  IC (total growth inhibition): 18.9 µM
[2]
  GI50: 5.24 µM
  CC50: 15.6 µM
  IC (total growth inhibition): 9.06 µM
[3]
  GI50: 7.74 µM
  CC50: 18.9 µM
  IC (total growth inhibition): 18.9 µM
[4]
  GI50: 7.39 µM
  CC50: 18.9 µM
  IC (total growth inhibition): 18.9 µM
[5]
  GI50: 9.89 µM
  CC50: 18.9 µM
  IC (total growth inhibition): 18.9 µM
[6]
  GI50: 13.4 µM
  CC50: 18.9 µM
  IC (total growth inhibition): 18.9 µM
[7]
  GI50: 12 µM
  CC50: 18.9 µM
  IC (total growth inhibition): 18.9 µM
[8]
  GI50: 7.38 µM
  CC50: 18.9 µM
  IC (total growth inhibition): 18.9 µM
[9]
  GI50: 15 µM
  CC50: 18.9 µM
  IC (total growth inhibition): 18.9 µM
[10]
  GI50: 4.37 µM
  LC50: 18.9 µM
  IC (total growth inhibition): 10 µM
[11]
  GI50: 6.15 µM
  LC50 (concentration for 50% cell killing): 18.9 µM
  IC (total growth inhibition): 18.9 µM
[12]
  GI50: 8.81 µM
  CC50: 18.9 µM
  IC (total growth inhibition): 18.9 µM
[13]
  GI50: 10.1 µM
  CC50: 18.9 µM
